Earlier results in patent US5731007A, “Pharmaceutical composition for skin diseases” (Yungjin Pharmaceutical Co., Ltd., priority 1994, dated 1998).
“Also recorded” adds a separate entry of the source. Counter-ions that a name gives are not always drawn.

Test system: gram positive and negative bacteria
Conditions: including strains resistant to antibiotics such as kanamycin

For `CNC[C@@H]1CC[C@@H](N)[C@@H](O[C@H]2[C@H](O)[C@@H](O[C@H]3OC[C@](C)(O)[C@H](NC)[C@H]3O)[C@H](N)C[C@@H]2N)O1` [Micronomicin sulfate, micronomicin sulfate], the “antibacterial activity” value is given as “wide antibacterial spectrum against both gram positive and negative bacteria; also recorded: effective bacteriocidal activity against infections by strains resistant to various antibiotics such as kanamycin”.
